The values below come from PMC8213057, “Targeting ALK2: An Open Science Approach to Developing Therapeutics for the Treatment of Diffuse Intrinsic Pontine Glioma” (Journal of Medicinal Chemistry, 2020).

Values joined by “and” are separate entries in the source; they are usually repeats but may differ in a detail not shown here. Equal values may be shown once.

The target in assay [1] is FLT4/VEGFR3 (Homo sapiens, UniProt P35916). Nature of the assay: biochemical. Particulars: read-out: % enzyme activity, 1 μM; Run 1, Run 2.
In assay [2] the target is T1, AXL (Homo sapiens, UniProt P30530).
T1 sequence (P30530 26-894): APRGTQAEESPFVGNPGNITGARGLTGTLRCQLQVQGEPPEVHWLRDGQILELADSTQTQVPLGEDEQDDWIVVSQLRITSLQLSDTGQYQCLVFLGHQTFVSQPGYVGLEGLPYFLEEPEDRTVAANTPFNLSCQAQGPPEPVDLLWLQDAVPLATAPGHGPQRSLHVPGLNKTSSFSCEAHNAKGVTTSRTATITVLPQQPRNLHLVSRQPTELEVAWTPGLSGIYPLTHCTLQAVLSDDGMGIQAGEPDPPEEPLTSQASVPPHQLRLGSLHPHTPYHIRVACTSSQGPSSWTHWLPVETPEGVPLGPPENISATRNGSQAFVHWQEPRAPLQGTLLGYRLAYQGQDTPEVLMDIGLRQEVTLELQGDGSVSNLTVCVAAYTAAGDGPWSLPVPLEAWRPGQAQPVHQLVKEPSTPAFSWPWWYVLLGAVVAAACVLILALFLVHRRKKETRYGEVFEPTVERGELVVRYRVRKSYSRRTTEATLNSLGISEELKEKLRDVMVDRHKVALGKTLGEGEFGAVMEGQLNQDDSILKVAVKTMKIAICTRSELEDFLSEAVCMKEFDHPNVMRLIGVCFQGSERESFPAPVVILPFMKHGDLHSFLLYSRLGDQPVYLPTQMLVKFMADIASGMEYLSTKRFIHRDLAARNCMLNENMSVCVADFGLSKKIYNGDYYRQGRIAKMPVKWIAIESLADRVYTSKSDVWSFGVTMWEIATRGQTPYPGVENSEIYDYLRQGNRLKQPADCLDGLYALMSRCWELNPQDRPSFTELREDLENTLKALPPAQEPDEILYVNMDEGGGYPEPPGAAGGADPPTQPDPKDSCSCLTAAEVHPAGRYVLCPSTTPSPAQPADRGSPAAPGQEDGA
Particulars: 1 μM; Run 1, Run 2.

The target in assay [3] is T2, Aurora C (Homo sapiens, UniProt Q9UQB9).
T2 sequence (Q9UQB9 1-309): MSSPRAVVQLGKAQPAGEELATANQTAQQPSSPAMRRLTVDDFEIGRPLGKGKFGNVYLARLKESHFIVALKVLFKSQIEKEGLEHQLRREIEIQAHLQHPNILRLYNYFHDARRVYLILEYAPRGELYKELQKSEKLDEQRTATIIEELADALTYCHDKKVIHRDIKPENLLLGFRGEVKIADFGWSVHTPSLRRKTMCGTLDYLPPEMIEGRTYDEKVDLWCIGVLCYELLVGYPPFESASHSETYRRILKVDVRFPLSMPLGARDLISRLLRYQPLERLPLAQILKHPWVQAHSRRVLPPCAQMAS
Particulars: 1 μM; Run 1, Run 2.

The target in assay [4] is CDK8/cyclin C (Homo sapiens, UniProt P49336). Nature of the assay: biochemical. Particulars: read-out: % enzyme activity, 1 μM; Run 1, Run 2.
Assay [5] has as its system FMS.
Assay [6] concerns the target T3, PKMYT1 (Homo sapiens, UniProt Q99640).
T3 sequence (Q99640 1-499): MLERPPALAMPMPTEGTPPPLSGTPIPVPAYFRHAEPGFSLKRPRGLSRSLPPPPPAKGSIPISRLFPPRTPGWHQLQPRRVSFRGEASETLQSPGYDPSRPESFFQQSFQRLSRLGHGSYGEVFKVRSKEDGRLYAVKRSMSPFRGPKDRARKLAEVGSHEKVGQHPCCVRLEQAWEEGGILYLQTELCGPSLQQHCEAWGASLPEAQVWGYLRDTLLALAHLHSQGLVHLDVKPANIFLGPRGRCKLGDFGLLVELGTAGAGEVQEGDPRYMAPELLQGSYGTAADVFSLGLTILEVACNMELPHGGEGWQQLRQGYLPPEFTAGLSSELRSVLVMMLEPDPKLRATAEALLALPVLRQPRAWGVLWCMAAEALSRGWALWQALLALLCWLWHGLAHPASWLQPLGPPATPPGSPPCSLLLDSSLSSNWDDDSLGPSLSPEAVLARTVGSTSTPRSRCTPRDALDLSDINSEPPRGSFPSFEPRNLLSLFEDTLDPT
Nature of the assay: biochemical. Particulars: read-out: % enzyme activity, 1 μM; Run 1, Run 2.

The target in assay [7] is T4, DMPK (Homo sapiens, UniProt Q09013).
T4 sequence (Q09013 1-629): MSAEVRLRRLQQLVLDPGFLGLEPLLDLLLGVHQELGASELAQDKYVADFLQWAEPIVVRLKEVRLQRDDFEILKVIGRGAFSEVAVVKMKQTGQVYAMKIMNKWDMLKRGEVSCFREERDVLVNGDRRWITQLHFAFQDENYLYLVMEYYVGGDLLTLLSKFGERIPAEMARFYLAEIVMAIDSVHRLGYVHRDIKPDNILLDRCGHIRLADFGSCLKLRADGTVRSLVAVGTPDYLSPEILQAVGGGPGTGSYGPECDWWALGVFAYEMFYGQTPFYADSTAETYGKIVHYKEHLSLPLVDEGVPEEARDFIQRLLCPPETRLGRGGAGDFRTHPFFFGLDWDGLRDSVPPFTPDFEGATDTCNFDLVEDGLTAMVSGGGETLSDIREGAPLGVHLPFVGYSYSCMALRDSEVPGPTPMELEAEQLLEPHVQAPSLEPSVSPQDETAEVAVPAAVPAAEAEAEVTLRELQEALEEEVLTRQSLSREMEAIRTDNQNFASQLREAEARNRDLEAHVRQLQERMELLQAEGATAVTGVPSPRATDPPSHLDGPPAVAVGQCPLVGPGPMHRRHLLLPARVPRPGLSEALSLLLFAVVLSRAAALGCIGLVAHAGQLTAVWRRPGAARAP
Particulars: 1 μM; Run 1, Run 2.

Assay [8] has as its target FER (Homo sapiens, UniProt P16591). Particulars: 1 μM; Run 1, Run 2.

Sequence of CDK8/cyclin C (P49336 whole entry): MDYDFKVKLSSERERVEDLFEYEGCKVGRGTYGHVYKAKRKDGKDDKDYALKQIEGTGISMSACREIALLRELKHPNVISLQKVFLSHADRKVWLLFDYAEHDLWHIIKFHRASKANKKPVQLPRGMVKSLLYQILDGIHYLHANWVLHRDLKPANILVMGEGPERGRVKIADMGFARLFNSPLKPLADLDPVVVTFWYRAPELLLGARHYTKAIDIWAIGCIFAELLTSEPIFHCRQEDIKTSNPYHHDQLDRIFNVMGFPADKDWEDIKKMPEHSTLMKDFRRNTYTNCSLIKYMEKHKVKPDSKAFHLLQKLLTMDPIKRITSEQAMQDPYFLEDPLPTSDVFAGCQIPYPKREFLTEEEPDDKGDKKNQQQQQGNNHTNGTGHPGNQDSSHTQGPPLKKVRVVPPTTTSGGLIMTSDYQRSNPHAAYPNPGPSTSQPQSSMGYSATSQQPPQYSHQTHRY
Sequence of CDK8/cyclin C (P24863 whole entry partner): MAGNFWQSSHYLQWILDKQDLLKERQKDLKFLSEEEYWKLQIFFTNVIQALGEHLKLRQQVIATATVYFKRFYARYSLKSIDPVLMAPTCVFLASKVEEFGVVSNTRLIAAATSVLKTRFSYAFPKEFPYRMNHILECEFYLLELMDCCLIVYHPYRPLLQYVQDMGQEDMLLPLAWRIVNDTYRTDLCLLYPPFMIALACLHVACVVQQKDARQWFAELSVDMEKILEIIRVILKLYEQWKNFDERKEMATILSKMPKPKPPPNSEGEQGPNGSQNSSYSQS
Sequence of FER (P16591 whole entry): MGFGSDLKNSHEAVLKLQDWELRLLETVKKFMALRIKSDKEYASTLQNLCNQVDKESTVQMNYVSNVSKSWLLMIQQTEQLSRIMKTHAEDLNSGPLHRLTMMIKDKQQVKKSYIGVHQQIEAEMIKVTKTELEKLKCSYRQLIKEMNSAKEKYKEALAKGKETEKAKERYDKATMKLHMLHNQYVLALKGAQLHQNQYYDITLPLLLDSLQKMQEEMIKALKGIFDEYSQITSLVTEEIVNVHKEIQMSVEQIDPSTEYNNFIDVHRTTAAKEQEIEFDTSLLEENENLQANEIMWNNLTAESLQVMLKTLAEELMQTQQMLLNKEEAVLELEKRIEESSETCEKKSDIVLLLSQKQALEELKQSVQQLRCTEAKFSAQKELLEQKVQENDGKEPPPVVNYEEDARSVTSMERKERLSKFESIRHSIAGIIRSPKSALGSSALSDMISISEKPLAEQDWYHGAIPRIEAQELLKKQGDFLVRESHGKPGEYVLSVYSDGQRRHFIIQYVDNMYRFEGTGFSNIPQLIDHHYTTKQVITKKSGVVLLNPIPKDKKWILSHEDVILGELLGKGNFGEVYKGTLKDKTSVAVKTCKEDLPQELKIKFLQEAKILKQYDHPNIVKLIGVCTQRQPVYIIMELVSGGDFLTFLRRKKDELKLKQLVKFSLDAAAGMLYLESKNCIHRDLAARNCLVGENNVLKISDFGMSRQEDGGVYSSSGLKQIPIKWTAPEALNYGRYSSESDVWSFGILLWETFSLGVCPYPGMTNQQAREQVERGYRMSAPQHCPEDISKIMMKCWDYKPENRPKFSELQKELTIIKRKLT
Sequence of FLT4/VEGFR3 (P35916 25-1363): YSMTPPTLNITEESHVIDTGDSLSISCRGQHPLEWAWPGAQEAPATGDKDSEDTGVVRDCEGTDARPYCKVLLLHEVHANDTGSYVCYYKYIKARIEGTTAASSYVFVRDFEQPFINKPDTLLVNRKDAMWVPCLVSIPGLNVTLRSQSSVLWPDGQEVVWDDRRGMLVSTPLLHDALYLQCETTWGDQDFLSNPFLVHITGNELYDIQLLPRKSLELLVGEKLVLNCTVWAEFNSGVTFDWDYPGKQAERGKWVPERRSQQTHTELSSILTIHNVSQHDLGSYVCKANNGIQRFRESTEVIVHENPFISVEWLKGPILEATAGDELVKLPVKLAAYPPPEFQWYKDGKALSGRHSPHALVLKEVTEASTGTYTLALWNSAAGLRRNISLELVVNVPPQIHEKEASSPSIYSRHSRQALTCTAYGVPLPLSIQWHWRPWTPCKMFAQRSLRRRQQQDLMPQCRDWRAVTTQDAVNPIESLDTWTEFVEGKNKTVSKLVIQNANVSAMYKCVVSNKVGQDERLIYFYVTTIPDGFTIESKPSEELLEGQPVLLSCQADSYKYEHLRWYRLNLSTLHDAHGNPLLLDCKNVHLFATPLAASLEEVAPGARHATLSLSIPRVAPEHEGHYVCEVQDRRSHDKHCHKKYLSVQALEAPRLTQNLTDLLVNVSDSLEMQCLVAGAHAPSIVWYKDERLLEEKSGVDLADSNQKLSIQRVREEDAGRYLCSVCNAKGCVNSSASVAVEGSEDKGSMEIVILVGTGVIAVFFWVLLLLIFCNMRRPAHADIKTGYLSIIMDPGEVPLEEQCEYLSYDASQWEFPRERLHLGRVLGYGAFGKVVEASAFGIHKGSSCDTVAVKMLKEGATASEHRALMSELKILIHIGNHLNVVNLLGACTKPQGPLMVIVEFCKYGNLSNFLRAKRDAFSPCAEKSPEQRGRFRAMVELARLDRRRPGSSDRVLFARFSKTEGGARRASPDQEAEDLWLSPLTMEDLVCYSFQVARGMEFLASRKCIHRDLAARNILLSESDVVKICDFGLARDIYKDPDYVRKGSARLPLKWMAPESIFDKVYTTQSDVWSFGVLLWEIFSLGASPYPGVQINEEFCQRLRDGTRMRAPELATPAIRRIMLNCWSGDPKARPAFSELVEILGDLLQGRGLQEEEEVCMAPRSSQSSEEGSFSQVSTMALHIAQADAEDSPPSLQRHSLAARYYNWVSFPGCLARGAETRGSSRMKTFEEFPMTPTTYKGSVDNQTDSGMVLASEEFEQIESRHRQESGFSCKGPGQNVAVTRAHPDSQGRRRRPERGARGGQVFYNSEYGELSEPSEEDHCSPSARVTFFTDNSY

For the compound `COc1cc(-c2cncc(-c3ccc(N4CCN(C)CC4)cc3)c2C)cc(F)c1C(N)=O` [Compound 26a, 2-Fluoro-6-methoxy-4-(4-methyl-5-(4-(4-methylpiperazin-1-yl)phenyl)pyridin-3-yl)benzamide], the remaining activity at 1 µM in assay [1] was 98.4%; in assay [4] it was 84.6%; in assay [6], 101%. Further, the “% enzyme activity” value in assay [2] stood at 81.59%; in assay [3], 103.00%; in assay [7], 108.75%; in assay [8], 86.16%. The % enzyme activity at 1 μM in assay [5] was 82.2% and 75.7%.

Take `COc1cc(-c2cncc(-c3ccc(N4C[C@@H](C)N(C)[C@@H](C)C4)cc3)c2C)cc(F)c1C(N)=O` [Compound 26c, 2-Fluoro-6-methoxy-4-(4-methyl-5-(4-((3R,5S)-3,4,5-trimethylpiperazin-1-yl)phenyl)pyridin-3-yl)benzamide]: the remaining activity at 1 µM in assay [1] is 97.1%; in assay [4], 93.1%; in assay [6], 94.5%. Moreover, the “% enzyme activity” value in assay [2] turned out to be 86.95%; in assay [3] it was 99.34%; in assay [7] it was 99.12%; in assay [8], 84.91%. Also, in assay [5], the % enzyme activity at 1 μM is 79.5% and 78.8%.
